We go through 3 molecules from patent publication US20260130966A1, “NOVEL THERAPEUTICS FOR PARASITIC INFECTION” (UNIVERSITY OF SOUTH FLORIDA, priority 2022, published 2026).

One series relates to J774.A1 macrophages. The series is described as follows: Cytotoxicity screen against Leishmania host cell line. The following applies: toxicity to J774.A1 macrophages. Type of series: cell-based. As to the method: The Leishmania donovani infected macrophage assay and cytotoxicity screen were conducted as previously described.
For a further series, the system named is HepG2. Put plainly: MTT cytotoxicity, human liver HepG2 cells. It is filed as cell-based. As to the method: (§1) The cytotoxicity of the metabolites to human liver cells and kidney cells was determined using an MTT based-In Vitro Toxicology Assay Kit (Sigma-Aldrich, St. Louis, MO, USA) following the manufacturing instructions. The human kidney HEK293T cells and the human liver HEPGZ cells were used for the evaluation in this study. Both cell samples were maintained and suspended in Dulbecco's Modified Eagle Medium (DMEM with 4.5 g/L glucose, L-glutamine and sodium pyruvate, Corning, Manassas, VA, USA) containing 10% fetal bovine serum (Thermo Scientific) and 1% penicillin/streptomycin at 37° C. under 5% CO2 atmosphere. The cells were plated on a 96-well plate with approximately 5×10^3-1×10^4 cells in each well, and incubated at 37° C. overnight. […] After that, the liquid in each well of the plate was removed carefully and thoroughly, then the cells in the wells were treated with 100 μL of DMSO, and incubated at 37° C. for 15 m. […] Bio Tek Instruments, Inc. Winooski VT). Cells treated with vancomycin, a common option for treating CDI in clinical settings, were also included in the MTT tests as a control. Cell survival and the IC50 were calculated according to the method used in a previous publication: Survival of cells (%)=Drug-treated group OD540/control group OD540×100.

In a further series the test system is C. difficile UK6. The series is described as follows: C. difficile MIC screening. Type of series: cell-based, Clostridium difficile.
The next series concerns HEK293T. The series is described as follows: MTT cytotoxicity, human kidney HEK293T cells. Type of series: cell-based. As to the method: as §1
Series [1] concerns ESKAPE panel of bacterial pathogens. Put plainly: ESKAPE panel antibacterial screen. It is filed as cell-based.
Series [2] deals with liver stage of Plasmodium falciparum. The note with it: previous investigation; cited from earlier work.

pIC50: −log10 of the molar value. Values after ≈ are worked out from the molar mass of the structure shown. Where a SMILES comes first, the peptide text is derived from it. [ ]: non-standard residue; d: D form. The star is where a group is joined. NMeI = CC[C@H](C)[C@H](NC)C(=O)O; X1 = CN(/C=C\c1c[nH]c2ccccc12)*; NMeV = CN[C@H](C(=O)O)C(C)C; NMeA = CN[C@@H](C)C(=O)O

Broadly, the pIC50 is the negative decadic logarithm of the IC50, by convention in mol/L. Read a low pIC50 as a high IC50. What is called CC50 is the concentration giving 50% cytotoxicity. High values mean better tolerance by the cells, low ones harm at low concentration. What is called MIC is the smallest concentration in the dilution series that meets the test's criterion for growth inhibition. A higher MIC goes with a less susceptible organism. In the series on J774.A1 macrophages, `Cc1cc2c(c3c1[C@@H](CO)OC3=O)CC(C)(C)C2` [Compound C3, alcyopterosin V] gave a pIC50 of 3.96. For the same molecule, the CC50 in the series on HepG2 was 288 µM; with HEK293T it was 220 µM. Further, the “activity against Clostridium difficile” value with C. difficile UK6 is reported as “potent activity”. Further, in the series on C. difficile UK6 (C. difficile), the MIC is 8.1 µM (≈ 2 µg/mL). Also, the “activity against the ESKAPE panel” value in series [1] was “inactive”.
With `Cc1cc2c(c3c1[C@H](CO[N+](=O)[O-])OC3=O)CC(C)(C)C2` [Compound C4, alcyopterosin E], the pIC50 in the series on J774.A1 macrophages was 4.21. Further, the CC50 with HepG2 is 331 µM; with HEK293T, 570 µM. The “activity against Clostridium difficile” value with C. difficile UK6 is on record as “potent activity”. The “activity against the ESKAPE panel” value in series [1] was “inactive”.
With `CC[C@H](C)[C@@H](C(=O)N(C)/C=C\c1c[nH]c2ccccc12)N(C)C(=O)[C@H]([C@@H](C)CC)N(C)C(=O)[C@H](C)N(C)C(=O)[C@H](C(C)C)N(C)C(=O)[C@H](Cc1ccccc1)NC(C)=O` [Compound P1, friomaramide A] (Ac-F[NMeV][NMeA][NMeI][NMeI]-X1), the “blocking of liver stage parasite development” value in series [2] is “comparable to the known drug primaquine”.
